According to patent US9453026B2, “ACC inhibitors and uses thereof” (Gilead Apollo, Inc., priority 2011, dated 2016):

Key:
ACC2 = ACC2 (Homo sapiens, UniProt O00763); test: In vitro ACC2 inhibition assay (ADP-Glo); format: biochemical; conditions: read-out: ACC2
Summary of the method: (§1)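 Enzyme (human ACC1 or ACC2) and compound, serially diluted 1:3 over 11 points from a 600 uM DMSO stock, were preincubated 15 min before substrate addition.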

ACC1 = ACC1 (Homo sapiens, UniProt Q13085); test: In vitro ACC1 inhibition assay (ADP-Glo); format: biochemical; conditions: read-out: ACC1
Summary of the method: as §1

ACC2, sequence (O00763 whole entry, species assumed): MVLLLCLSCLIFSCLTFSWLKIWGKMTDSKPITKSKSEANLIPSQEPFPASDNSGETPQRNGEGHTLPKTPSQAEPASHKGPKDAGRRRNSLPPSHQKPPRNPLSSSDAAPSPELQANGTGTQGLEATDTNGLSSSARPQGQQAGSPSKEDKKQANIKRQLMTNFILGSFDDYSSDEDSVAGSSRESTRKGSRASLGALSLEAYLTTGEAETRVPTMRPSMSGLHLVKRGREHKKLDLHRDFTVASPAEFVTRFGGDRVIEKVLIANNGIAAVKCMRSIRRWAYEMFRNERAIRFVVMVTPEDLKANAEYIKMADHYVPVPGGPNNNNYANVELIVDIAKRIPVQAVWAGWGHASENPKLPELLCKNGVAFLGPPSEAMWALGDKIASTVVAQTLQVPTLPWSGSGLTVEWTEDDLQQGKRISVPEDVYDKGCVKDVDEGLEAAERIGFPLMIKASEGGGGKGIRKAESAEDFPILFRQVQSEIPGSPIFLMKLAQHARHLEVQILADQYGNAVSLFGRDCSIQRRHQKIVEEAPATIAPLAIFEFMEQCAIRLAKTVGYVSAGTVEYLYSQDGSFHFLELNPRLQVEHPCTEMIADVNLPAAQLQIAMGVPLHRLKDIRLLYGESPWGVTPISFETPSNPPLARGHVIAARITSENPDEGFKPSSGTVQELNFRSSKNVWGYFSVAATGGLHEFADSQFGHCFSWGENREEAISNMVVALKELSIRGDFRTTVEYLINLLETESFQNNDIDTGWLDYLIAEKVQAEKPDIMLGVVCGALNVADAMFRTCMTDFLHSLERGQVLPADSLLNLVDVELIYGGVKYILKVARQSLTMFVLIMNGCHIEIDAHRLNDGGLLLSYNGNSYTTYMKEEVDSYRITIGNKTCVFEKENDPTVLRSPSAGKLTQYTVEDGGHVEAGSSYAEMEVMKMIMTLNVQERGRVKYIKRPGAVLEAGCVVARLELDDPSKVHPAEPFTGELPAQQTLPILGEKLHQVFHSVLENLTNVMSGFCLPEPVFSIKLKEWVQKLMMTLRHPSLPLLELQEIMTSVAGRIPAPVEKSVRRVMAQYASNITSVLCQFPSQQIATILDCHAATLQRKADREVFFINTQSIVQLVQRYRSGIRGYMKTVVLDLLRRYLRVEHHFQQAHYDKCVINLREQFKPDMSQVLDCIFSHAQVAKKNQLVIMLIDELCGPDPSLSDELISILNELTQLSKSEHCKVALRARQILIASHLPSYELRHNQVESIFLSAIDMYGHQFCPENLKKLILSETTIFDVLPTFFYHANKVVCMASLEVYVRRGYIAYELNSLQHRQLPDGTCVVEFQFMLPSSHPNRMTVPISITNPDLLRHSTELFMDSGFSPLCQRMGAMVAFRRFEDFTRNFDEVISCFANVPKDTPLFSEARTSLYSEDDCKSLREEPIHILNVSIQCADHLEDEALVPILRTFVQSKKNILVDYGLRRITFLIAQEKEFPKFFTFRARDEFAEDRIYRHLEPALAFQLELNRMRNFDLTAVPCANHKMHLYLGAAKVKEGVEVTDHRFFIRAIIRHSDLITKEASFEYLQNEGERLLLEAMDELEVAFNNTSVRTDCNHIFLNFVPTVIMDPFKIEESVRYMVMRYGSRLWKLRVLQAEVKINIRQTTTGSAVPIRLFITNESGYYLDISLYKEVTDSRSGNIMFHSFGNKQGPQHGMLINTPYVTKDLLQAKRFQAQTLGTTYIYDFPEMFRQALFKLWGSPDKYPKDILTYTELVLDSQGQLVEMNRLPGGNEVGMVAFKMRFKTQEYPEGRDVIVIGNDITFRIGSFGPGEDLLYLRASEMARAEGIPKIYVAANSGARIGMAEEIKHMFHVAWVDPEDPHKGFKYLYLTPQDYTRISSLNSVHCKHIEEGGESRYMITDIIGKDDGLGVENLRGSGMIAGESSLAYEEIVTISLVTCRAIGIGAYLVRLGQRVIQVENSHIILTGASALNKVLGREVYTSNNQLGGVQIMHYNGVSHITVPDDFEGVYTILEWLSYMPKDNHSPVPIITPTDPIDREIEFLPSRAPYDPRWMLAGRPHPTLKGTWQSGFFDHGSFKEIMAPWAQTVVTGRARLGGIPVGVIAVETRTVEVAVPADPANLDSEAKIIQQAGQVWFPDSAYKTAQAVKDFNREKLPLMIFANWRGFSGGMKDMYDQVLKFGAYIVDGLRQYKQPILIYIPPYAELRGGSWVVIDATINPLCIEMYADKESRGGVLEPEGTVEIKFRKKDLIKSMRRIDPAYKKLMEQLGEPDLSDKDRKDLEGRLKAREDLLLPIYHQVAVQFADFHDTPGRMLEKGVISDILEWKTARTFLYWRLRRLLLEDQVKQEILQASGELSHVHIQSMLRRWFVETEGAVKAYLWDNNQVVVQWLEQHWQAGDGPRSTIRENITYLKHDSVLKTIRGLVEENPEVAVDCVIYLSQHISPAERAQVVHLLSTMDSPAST

IC50 (ACC2) | IC50 (ACC1) | SMILES
< 100 nM | < 100 nM | Cc1c(-c2ncco2)sc2c1c(=O)n(C(C)(C)C(=O)O)c(=O)n2C[C@H](OC(C)C)c1ccccc1OC(F)F [I-267, 2-[1-[(2R)-2-[2-(difluoromethoxy)phenyl]-2-(propan-2-yloxy)ethyl]-5-methyl-6-(1,3-oxazol-2-yl)-2,4-dioxo-1H,2H,3H,4H-thieno[2,3-d]pyrimidin-3-yl]-2-methylpropanoic acid]
< 1000 nM | < 1000 nM | CCOC(=O)c1sc2c(c1C)c(=O)n(C(C)(C)C(=O)O)c(=O)n2C[C@H](OC(C)CC)c1ccccc1 (stereo in doubt) [I-131, 2-[1-[(2R)-2-[(2R)-butan-2-yloxy]-2-phenylethyl]-6-(ethoxycarbonyl)-5-methyl-2,4-dioxo-1H,2H,3H,4H-thieno[2,3-d]pyrimidin-3-yl]-2-methylpropanoic acid]
< 1000 nM | < 1000 nM | CCOC(=O)c1sc2c(c1C)c(=O)n(C(C)(C)C(=O)O)c(=O)n2CCc1ccccc1 [I-70, 2-[6-(ethoxycarbonyl)-5-methyl-2,4-dioxo-1-(2-phenylethyl)-1H,2H,3H,4H-thieno[2,3-d]pyrimidin-3-yl]-2-methylpropanoic acid]
< 1000 nM | < 100 nM | CCOc1ccccc1CCn1c(=O)n(C(C)(C)C(=O)O)c(=O)c2c(C)c(-c3ncco3)sc21 [I-135, 2-[1-[2-(2-ethoxyphenyl)ethyl]-5-methyl-6-(1,3-oxazol-2-yl)-2,4-dioxo-1H,2H,3H,4H-thieno[2,3-d]pyrimidin-3-yl]-2-methylpropanoic acid]
< 100 nM | < 100 nM | CCc1ccccc1[C@H](Cn1c(=O)n(C(C)(C)C(=O)O)c(=O)c2c(C)c(-c3ncco3)sc21)OC1CCOCC1 [I-249, 2-[1-[(2R)-2-(2-ethylphenyl)-2-(oxan-4-yloxy)ethyl]-5-methyl-6-(1,3-oxazol-2-yl)-2,4-dioxo-1H,2H,3H,4H-thieno[2,3-d]pyrimidin-3-yl]-2-methylpropanoic acid]
5000 to 20000 nM | < 5000 nM | CCOC(=O)c1sc2c(c1C)c(=O)n(CCO)c(=O)n2CCc1ccccc1 [I-1]
< 100 nM | < 100 nM | COc1ccccc1[C@H](Cn1c(=O)n(C(C)(C)CO)c(=O)c2c(C)c(-c3ncco3)sc21)OC1CCOCC1 [I-290, 3-(1-hydroxy-2-methylpropan-2-yl)-1-[(2R)-2-(2-methoxyphenyl)-2-(oxan-4-yloxy)ethyl]-5-methyl-6-(1,3-oxazol-2-yl)-1H,2H,3H,4H-thieno[2,3-d]pyrimidine-2,4-dione]
< 100 nM | < 100 nM | COc1ccccc1[C@H](Cn1c(=O)n(Cc2nnc[nH]2)c(=O)c2c(C)c(-c3ncco3)sc21)OC1CCOCC1 [I-289, 1-[(2R)-2-(2-methoxyphenyl)-2-(oxan-4-yloxy)ethyl]-5-methyl-6-(1,3-oxazol-2-yl)-3-(4H-1,2,4-triazol-3-ylmethyl)-1H,2H,3H,4H-thieno[2,3-d]pyrimidine-2,4-dione]
< 5000 nM | < 5000 nM | CCOC(=O)c1sc2c(c1C)c(=O)n(Cc1nnn[nH]1)c(=O)n2CCc1ccccc1 [I-45, ethyl 5-methyl-2,4-dioxo-1-(2-phenylethyl)-3-(1H-1,2,3,4-tetrazol-5-ylmethyl)-1H,2H,3H,4H-thieno[2,3-d]pyrimidine-6-carboxylate]
< 100 nM | < 100 nM | COc1ccccc1[C@H](Cn1c(=O)n(C(C)(C)C(=O)N2CC(O)C2)c(=O)c2c(C)c(-c3ncco3)sc21)OC(C)C [I-241, 3-[1-(3-hydroxyazetidin-1-yl)-2-methyl-1-oxopropan-2-yl]-1-[(2R)-2-(2-methoxyphenyl)-2-(propan-2-yloxy)ethyl]-5-methyl-6-(1,3-oxazol-2-yl)-1H,2H,3H,4H-thieno[2,3-d]pyrimidine-2,4-dione]
< 100 nM | < 100 nM | COc1ccccc1[C@H](Cn1c(=O)n(CC(C)(C)O)c(=O)c2c(C)c(-c3ncco3)sc21)OC1CCOCC1 [I-287, 3-(2-hydroxy-2-methylpropyl)-1-[(2R)-2-(2-methoxyphenyl)-2-(oxan-4-yloxy)ethyl]-5-methyl-6-(1,3-oxazol-2-yl)-1H,2H,3H,4H-thieno[2,3-d]pyrimidine-2,4-dione]
< 100 nM | < 100 nM | CCc1ccccc1[C@H](Cn1c(=O)n(C(C)(C)C(=O)O)c(=O)c2c(C)c(-c3ncco3)sc21)OCCO [I-255, 2-[1-[(2R)-2-(2-ethylphenyl)-2-(2-hydroxyethoxy)ethyl]-5-methyl-6-(1,3-oxazol-2-yl)-2,4-dioxo-1H,2H,3H,4H-thieno[2,3-d]pyrimidin-3-yl]-2-methylpropanoic acid]
< 100 nM | < 100 nM | Cc1c(-c2ncco2)sc2c1c(=O)n(C(C)(C)C(=O)O)c(=O)n2C[C@H](OC[C@@H](C)O)c1ccccc1 [I-179, 2-[1-[(2R)-2-[(2R)-2-hydroxypropoxy]-2-phenylethyl]-5-methyl-6-(1,3-oxazol-2-yl)-2,4-dioxo-1H,2H,3H,4H-thieno[2,3-d]pyrimidin-3-yl]-2-methylpropanoic acid]
< 100 nM | < 100 nM | CCO[C@@H](Cn1c(=O)n(C(C)(C)C(=O)O)c(=O)c2c(C)c(-c3ncco3)sc21)c1ccccc1OC [I-243, 2-[1-[(2R)-2-ethoxy-2-(2-methoxyphenyl)ethyl]-5-methyl-6-(1,3-oxazol-2-yl)-2,4-dioxo-1H,2H,3H,4H-thieno[2,3-d]pyrimidin-3-yl]-2-methylpropanoic acid]
< 100 nM | < 100 nM | COc1ccccc1[C@H](Cn1c(=O)n(CC(=O)O)c(=O)c2c(C)c(-c3ncco3)sc21)OC1CCOCC1 [I-286, 2-[1-[(2R)-2-(2-methoxyphenyl)-2-(oxan-4-yloxy)ethyl]-5-methyl-6-(1,3-oxazol-2-yl)-2,4-dioxo-1H,2H,3H,4H-thieno[2,3-d]pyrimidin-3-yl]acetic acid]
< 1000 nM | < 100 nM | Cc1c(-c2ncco2)sc2c1c(=O)n(C(C)(C)C(=O)O)c(=O)n2C[C@H](OC1CCC(=O)CC1)c1ccccc1 [I-145, (R)-2-methyl-2-(5-methyl-6-(oxazol-2-yl)-2,4-dioxo-1-(2-((4-oxocyclohexyl)oxy)-2-phenylethyl)-1,2-dihydrothieno[2,3-d]pyrimidin-3(4H)-yl)propanoic acid]
< 100 nM | < 100 nM | COc1ccccc1[C@H](Cn1c(=O)n(C(C)(C)C(=O)N2CCC2)c(=O)c2c(C)c(-c3ncco3)sc21)OC(C)C [I-237, 3-[1-(azetidin-1-yl)-2-methyl-1-oxopropan-2-yl]-1-[(2R)-2-(2-methoxyphenyl)-2-(propan-2-yloxy)ethyl]-5-methyl-6-(1,3-oxazol-2-yl)-1H,2H,3H,4H-thieno[2,3-d]pyrimidine-2,4-dione]
< 100 nM | < 100 nM | Cc1c(-c2ncco2)sc2c1c(=O)n(C(C)(C)C(N)=O)c(=O)n2C[C@H](OC1CCOCC1)c1ccccc1OC(C)C [I-292, 2-methyl-2-[5-methyl-1-[(2R)-2-(oxan-4-yloxy)-2-[2-(propan-2-yloxy)phenyl]ethyl]-6-(1,3-oxazol-2-yl)-2,4-dioxo-1H,2H,3H,4H-thieno[2,3-d]pyrimidin-3-yl]propanamide]
< 100 nM | < 100 nM | COc1ccccc1[C@H](Cn1c(=O)n(C(C)(C)C(=O)O)c(=O)c2c(C)c(-c3ncco3)sc21)OCCO [I-254, 2-[1-[(2R)-2-(2-hydroxyethoxy)-2-(2-methoxyphenyl)ethyl]-5-methyl-6-(1,3-oxazol-2-yl)-2,4-dioxo-1H,2H,3H,4H-thieno[2,3-d]pyrimidin-3-yl]-2-methylpropanoic acid]
< 1000 nM | < 100 nM | Cc1c(-c2ncco2)sc2c1c(=O)n(C(C)(C)C(=O)O)c(=O)n2C[C@H](OC(C)C)c1ccccc1 [I-119, 2-methyl-2-[5-methyl-6-(1,3-oxazol-2-yl)-2,4-doxo-1-[(2R)-2-phenyl-2-(propan-2-yloxy)ethyl]-1H,2H,3H,4H-thieno[2,3-d]pyrimidin-3-yl]propanoic acid]
< 1000 nM | < 1000 nM | Cc1c(-c2ncco2)sc2c1c(=O)n(C(C)(C)C(=O)O)c(=O)n2C[C@H](O[C@H]1CC[C@](C)(O)CC1)c1ccccc1 [I-163, 2-(1-((R)-2-(((1r,4R)-4-hydroxy-4-methylcyclohexyl)oxy)-2-phenylethyl)-5-methyl-6-(oxazol-2-yl)-2,4-dioxo-1,2-dihydrothieno[2,3-d]pyrimidin-3(4H)-yl)-2-methylpropanoic acid]
< 100 nM | < 100 nM | CCc1ccccc1[C@H](Cn1c(=O)n(C(C)(C)C(=O)O)c(=O)c2c(C)c(-c3ncco3)sc21)O[C@H]1CC[C@H](O)CC1 [I-244, 2-(1-((R)-2-(2-ethylphenyl)-2-(((1r,4R)-4-hydroxycyclohexyl)oxy)ethyl)-5-methyl-6-(oxazol-2-yl)-2,4-dioxo-1,2-dihydrothieno[2,3-d]pyrimidin-3(4H)-yl)-2-methylpropanoic acid]
< 5000 nM | < 5000 nM | CCOC(=O)c1sc2c(c1C)c(=O)n(CCC(=O)O)c(=O)n2CCc1ccccc1 [I-46, 3-[6-(ethoxycarbonyl)-5-methyl-2,4-dioxo-1-(2-phenylethyl)-1H,2H,3H,4H-thieno[2,3-d]pyrimidin-3-yl]propanoic acid]
< 100 nM | < 100 nM | Cc1c(-c2ncco2)sc2c1c(=O)n(C(C)(C)C(=O)O)c(=O)n2C[C@H](OC1CCOCC1)c1ccccc1COC(C)C [I-297, 2-methyl-2-[5-methyl-1-[(2R)-2-(oxan-4-yloxy)-2-[2-[(propan-2-yloxy)methyl]phenyl]ethyl]-6-(1,3-oxazol-2-yl)-2,4-dioxo-1H,2H,3H,4H-thieno[2,3-d]pyrimidin-3-yl]propanoic acid]
5000 to 20000 nM | 5000 to 20000 nM | CCOC(=O)c1sc2c(c1C)c(=O)n(CC(=O)O)c(=O)n2CCc1c(F)cccc1F [I-33, 2-[1-[2-(2,6-difluorophenyl)ethyl]-6-(ethoxycarbonyl)-5-methyl-2,4-dioxo-1H,2H,3H,4H-thieno[2,3-d]pyrimidin-3-yl]acetic acid]
